Assay results as given in patent publication US8592174B2, “Peptidase substrates” (bioMérieux, S.A., priority 2009, dated 2013).

Assays:
Format in all cases: cell-based
[1] = system: Klebsiella pneumoniae ssp pneumoniae 73 08 012; experiment: pH variation detection on modified chromID Coli medium (Example 6); set-up: Coloration strength: key to the marks not given beside the values; settings: 50 mg/l, 24 h 37° C.
Protocol: (§1) The media were incubated for 24 hours at 37° C., then the spots formed were examined visually.

[2] = system: Rahnella aquatilis 05 04 103; experiment: as above; set-up: Coloration strength: key to the marks not given beside the values; settings: 50 mg/l, 24 h 37° C.
Protocol: as §1

[3] = system: Escherichia vulneris 85 06 777; experiment: as above; set-up: Coloration strength: key to the marks not given beside the values; settings: 50 mg/l, 24 h 37° C.
Protocol: as §1

[4] = system: Citrobacter freundii 05 04 165; experiment: as above; set-up: Coloration strength: key to the marks not given beside the values; settings: 50 mg/l, 24 h 37° C.
Protocol: as §1

[5] = system: Citrobacter braakii 05 06 109; experiment: as above; set-up: Coloration strength: key to the marks not given beside the values; settings: 50 mg/l, 24 h 37° C.
Protocol: as §1

[6] = system: Kluyvera ascorbata 84 08 084; experiment: as above; set-up: Coloration strength: key to the marks not given beside the values; settings: 50 mg/l, 24 h 37° C.
Protocol: as §1

[7] = system: Klebsiella oxytoca 05 04 175; experiment: as above; set-up: Coloration strength: key to the marks not given beside the values; settings: 50 mg/l, 24 h 37° C.
Protocol: as §1

[8] = system: Shigella boydii 00 04 212; experiment: as above; set-up: Coloration strength: key to the marks not given beside the values; settings: 50 mg/l, 24 h 37° C.
Protocol: as §1

Salmonella spp 93 03 001 = experiment: as above; set-up: Coloration strength: key to the marks not given beside the values; settings: 50 mg/l, 24 h 37° C.
Protocol: as §1

[9] = system: Serratia liquefaciens 05 04 117; experiment: as above; set-up: Coloration strength: key to the marks not given beside the values; settings: 50 mg/l, 24 h 37° C.
Protocol: as §1

[10] = system: Pectobacterium carotovorum 84 06 059; experiment: as above; set-up: Coloration strength: key to the marks not given beside the values; settings: 50 mg/l, 24 h 37° C.
Protocol: as §1

E. coli 05 06 052 = experiment: as above; set-up: Coloration strength: key to the marks not given beside the values; settings: 50 mg/l, 24 h 37° C.
Protocol: as §1

[11] = system: Salmonella ser. Typhimurium 81 12 010; experiment: as above; set-up: Coloration strength: key to the marks not given beside the values; settings: 50 mg/l, 24 h 37° C.
Protocol: as §1

[12] = system: Proteus mirabilis 04 05 048; experiment: as above; set-up: Coloration strength: key to the marks not given beside the values; settings: 50 mg/l, 24 h 37° C.
Protocol: as §1

E. coli 77 05 035 = experiment: as above; set-up: Coloration strength: key to the marks not given beside the values; settings: 50 mg/l, 24 h 37° C.
Protocol: as §1

[13] = system: Ewingella americana 05 06 045; experiment: as above; set-up: Coloration strength: key to the marks not given beside the values; settings: 50 mg/l, 24 h 37° C.
Protocol: as §1

[14] = system: Forty-four strains of microorganisms; experiment: pH variation detection on modified chromID Coli medium (Example 6), all strains; settings: 50 mg/l; 24 h 37° C.; conclusion of Example 6
Protocol: as §1

[15] = system: Salmonella typhimurium NCTC 74; experiment: Peptidase detection on Columbia medium (Example 2); set-up: key to Growth: NG: No growth; 0.5: weak growth; 1: moderate growth; 2: good growth; settings: 40 mg in 400 ml Columbia; 24 h 37° C.
Protocol: (§2) The 6 media were distributed into Petri dishes 90 mm in diameter, in a proportion of 20 ml per dish.
(§3) Seventeen strains of microorganisms stemming from collections and belonging to various species of bacteria and yeasts are inoculated in spots of approximately 10 000 colony-forming units.
(§4) The media are incubated for 24 hours at 37° C., and then the colonies formed are examined visually, with or without the addition of acid and under a UV lamp at 365 nm.

[16] = system: Staphylococcus aureus NCTC 11 939; experiment: Peptidase detection on Columbia medium (Example 2); set-up: key to Growth: NG: No growth; 0.5: weak growth; 1: moderate growth; 2: good growth; key to Fluo. / Color / Color post-acid.: —: no color; settings: 40 mg in 400 ml Columbia; 24 h 37° C.
[17] = system: Streptococcus pyogenes NCTC 8 306; experiment: Peptidase detection on Columbia medium (Example 2); set-up: key to Growth: NG: No growth; 0.5: weak growth; 1: moderate growth; 2: good growth; settings: 40 mg in 400 ml Columbia; 24 h 37° C.
Protocol: as §2, §3, §4

[18] = system: Pseudomonas aeruginosa NCTC 10 662; experiment: Peptidase detection on Columbia medium (Example 2); set-up: key to Growth: NG: No growth; 0.5: weak growth; 1: moderate growth; 2: good growth; settings: 40 mg in 400 ml Columbia; 24 h 37° C.
Protocol: as §2, §3, §4

[19] = system: Bacillus subtilis NCTC 9 372; experiment: Peptidase detection on Columbia medium (Example 2); set-up: key to Growth: NG: No growth; 0.5: weak growth; 1: moderate growth; 2: good growth; key to Fluo. / Color / Color post-acid.: —: no color; settings: 40 mg in 400 ml Columbia; 24 h 37° C.
Protocol: as §2, §3, §4

Structure (SMILES): Nc1ccc(C=Cc2ccnc3ccccc23)cc1
- Color [1]: Orange
- Coloration strength [1]: ++
- Growth ([1]; control C: ++): ++
- Color [2]: Orange
- Coloration strength [2]: ++
- Growth ([2]; control C: ++): ++
- Color [3]: Orange
- Coloration strength [3]: ++
- Growth ([3]; control C: ++): ++
- Color [4]: Orange
- Coloration strength [4]: ++
- Growth ([4]; control C: ++): ++
- Color [5]: Orange
- Coloration strength [5]: ++
- Growth ([5]; control C: ++): ++
- Color [6]: Orange
- Coloration strength [6]: ++
- Growth ([6]; control C: ++): ++
- Color [7]: Orange
- Coloration strength [7]: ++
- Growth ([7]; control C: ++): ++
- Color [8]: Orange
- Coloration strength [8]: ++
- Growth ([8]; control C: ++): ++
- Color (Salmonella spp 93 03 001): Orange
- Coloration strength (Salmonella spp 93 03 001): ++
- Growth (Salmonella spp 93 03 001; control C: ++): ++
- Color [9]: Orange
- Coloration strength [9]: ++
- Growth ([9]; control C: ++): ++
- Color [10]: Orange
- Coloration strength [10]: ++
- Growth ([10]; control C: ++): +
- Color (E. coli 05 06 052): Orange
- Coloration strength (E. coli 05 06 052): ++
- Growth (E. coli 05 06 052; control C: ++): ++
- Color [11]: Orange
- Coloration strength [11]: ++
- Growth ([11]; control C: ++): ++
- Color [12]: Orange
- Coloration strength [12]: ++
- Growth ([12]; control C: ++): ++
- Color (E. coli 77 05 035): Orange
- Coloration strength (E. coli 77 05 035): ++
- Growth (E. coli 77 05 035; control C: ++): ++
- Color [13]: Orange
- Coloration strength [13]: ++
- Growth ([13]; control C: ++): ++
- toxicity [14]: does not exhibit any particular toxicity

Structure (SMILES): C[C@H](N)C(=O)N[C@@H](C)C(=O)N[C@@H](C)C(=O)Nc1ccc(C=Cc2cc[n+](C)c3ccccc23)cc1.Cl.[Cl-] [Tri-Ala-ASQM^+, L-alanyl-L-alanyl-L-alanyl-4-(4′-amidostyryl)-N-methylquinolinium (dichloride)]
- Color [15]: Orange
- Growth [15]: 2
- Color [16]: —
- Growth [16]: 2
- Growth [17]: 2
- Color [18]: Orange
- Growth [18]: 2
- Color [19]: —
- Growth [19]: 2
